Patent US12396994B2, “Compositions for improving physiological function with age” (The Regents Of The University Of Colorado, a body corporate, priority 2017, dated 2025)

Legend:
[1] = test system: human umbilical vein endothelial cells (HUVEC); assay: Autophagy induction in HUVEC, Cyto-ID fluorescence microplate detection; assay type: cell-based; settings: 24 h
Method: First, we compiled a library of naturally occurring compounds known to enhance autophagy. Then, we calculated physiologically relevant concentrations of these compounds based on existing data (e.g., previously reported post-prandial plasma concentrations), and we tested each for its ability to induce autophagy at its calculated concentration alone and/or in combination with other candidate compounds. […] In all experiments, autophagy was assessed in human umbilical vein endothelial cells (HUVEC), because of their relevance to vascular physiological measures (in vivo measures, below). Pooled HUVEC cultures obtained from Cascade Biologics were grown in endothelial cell-specific medium (Lonza) at 37° C. in a […] incubator. Third passage cells were seeded into 96-well plates and allowed to reach 70% confluency, at which point candidate treatment compounds or combinations were applied for 24 hours. […] Autophagy was assessed using Enzo Life Sciences Cyto-ID autophagy detection reagents (fluorescence microplate detection of autophagic structures) according to manufacturers instructions on an M5 Spectramax fluorescent plate reader (Molecular Devices). Candidate AEON formulations were designated as AEON-1, -2, etc.
To identify a mixture of food-safe compounds that synergistically activates autophagy (the cellular process of recycling damaged internal components), we screened a library of natural compounds reported to induce autophagy in vitro (in cells). […] Autophagy was assessed via fluorescent microplate assay and confirmed by microscopy in cultured human umbilical vein endothelial cells treated for 24 hours.

cells = settings: reported, trehalose in cells and in mice; cited from earlier work
[2] = low (physiologically relevant) doses, ingredient alone (trehalose 5 mM)

Row | SMILES | Autophagy induction (relative microplate fluorescence) [1, 2] | Concentration at which the single agent induces autophagy (cells) | Autophagy induction (relative microplate fluorescence) ([1]; established inducers at rapamycin 0.5 μM, trehalose 50 mM (high dose), FIG. 1A)
1 | O=C(O[C@@H]1Cc2c(O)cc(O)cc2O[C@@H]1c1cc(O)c(O)c(O)c1)c1cc(O)c(O)c(O)c1 [epigallocatechin gallate] | had no effect on autophagy |  | 
2 | OC[C@H]1O[C@H](O[C@H]2O[C@H](CO)[C@@H](O)[C@H](O)[C@H]2O)[C@H](O)[C@@H](O)[C@@H]1O [trehalose] | had no effect on autophagy | 50 to 100 mM | significantly stimulated autophagy
3 | Cn1c(=O)c2c(ncn2C)n(C)c1=O [caffeine] |  | 1 to 20 mM | 
4 | C=C1CC[C@H](O)C/C1=C/C=C1\CCC[C@]2(C)[C@@H]([C@H](C)CCCC(C)C)CC[C@@H]12 [cholecalciferol] | had no effect on autophagy |  | 
